According to US5229419A, “Chemotherapeutically active acetogenins” (Purdue Research Foundation, priority 1992, dated 1993):
≈ marks a conversion by molar mass, not a printed value.

Legend:
HT29 = assay: NCI in vitro cytotoxicity, colon cancer; format: cell-based; settings: Homo sapiens, HT-29
OVCAR-8 = assay: NCI in vitro cytotoxicity, ovarian cancer; format: cell-based; settings: Homo sapiens
[1] = system: brine shrimp (Artemia salina Leach); assay: whole plant or invertebrate; format: in vivo; settings: 24 hrs, read-out: BST LC50
Protocol: The extracts, fractions, and isolated compounds were routinely evaluated for lethality to brine shrimp larvae (BST). The LC50 of brine shrimp (Artemia salina Leach) was determined by substantially the same method described by Meyer et al. [Planta Med., 45: 31-34 (1982)]. The test sample was dissolved in solvent and added to 2-dram vials in an amount to provide 1000, 100, 10, 1, etc. p.p.m. of material in the final brine preparation, assuming complete miscibility in the brine. The vials were dried in vacuo, and artificial sea water, prepared from a commercial salt mixture, was added. Ten brine shrimp larva (nauplii), 48-72 hrs. old, were introduced to the vial, and the volume was made up to 5 ml. with the sea water. After 24 hrs., the percent mortality was computed. Subsequently, LC50 values and 95% confidence limits were calculated by a Finney probit analysis to permit comparison of potencies of extracts and fractions.
(§1) Anticancer activity is a potential use even for the crude extract. The bioassay results for the lethality of brine shrimp (BST), the inhibition of crown gall tumors on potato discs (PD), the reversal in morphology of db-cAMP induced AC glioma cells from that of mature, differentiated astrocytes to that of immature AC glioma cells (mouse brain cells) (9ASK), the dose that inhibits cell growth to one-half that of untreated poorly differentiated human epidermic carcinoma (9KB), the dose that inhibits cell growth to one-half that of a methylcholanthrene-induced lymphoid neoplasm in a DBA/2 mouse (9PS), and the percent displacement in a protein kinase C test for initial extract fractions are shown in Table 1. Obviously, the bioactivity is concentrated in F005.

HL-60 TB = assay: NCI in vitro cytotoxicity, leukemia; format: cell-based; settings: Homo sapiens
A2780 = assay: NCI in vitro cytotoxicity, ovarian cancer; format: cell-based; settings: Homo sapiens
HCC-2998 = assay: NCI in vitro cytotoxicity, colon cancer; format: cell-based; settings: Homo sapiens
LOVO = assay: NCI in vitro cytotoxicity, colon cancer; format: cell-based; settings: Homo sapiens
[2] = system: 9KB (human nasopharyngeal carcinoma); assay: 9KB cytotoxicity; format: cell-based
Protocol: Occasional checks in the potato disc (PD) assay assured us that antitumor activity was present [Ferrigni et al., J. Nat. Prod., 45; 679-686 (1982)]. Cytotoxicity tests were performed at the Purdue Cell Culture Laboratory, Purdue Cancer Center, using standard protocols for 9KB (human nasopharyngeal carcinoma) and 9PS (a chemically-induced murine lymphocytic leukemia) [Suffness et al., Methods In Cancer Research. Vol. 16: 73 (1979), V. T. DeVita, Jr. and H. Busch eds., Academic Press, New York], 9ASK (astrocytoma reversal) [Lgarashi et al., Cell Struct. and Funct., 3: 107 (1978)], A-549 (human lung carcinoma) [Giard et al., J. Nat. Cancer Inst., 51: 1417-1423 (1973)], and HT-29 (human colon adenocarcinoma) [Fogh J. (ed.), Human Tumor Cells, In Vitro, Plenum Press, New York: 115-159 (1975)].
as §1

protein kinase C = protein kinase C displacement test; format: binding; settings: 10 μM
MCF7 = assay: NCI in vitro cytotoxicity, breast cancer; format: cell-based; settings: Homo sapiens
P388 = assay: NCI in vitro cytotoxicity, leukemia; format: cell-based; settings: Mus musculus
HOLT-4 = assay: NCI in vitro cytotoxicity, leukemia; format: cell-based; settings: Homo sapiens
OVCAR-5 = assay: NCI in vitro cytotoxicity, ovarian cancer; format: cell-based; settings: Homo sapiens
DLD-1 = assay: NCI in vitro cytotoxicity, colon cancer; format: cell-based; settings: Homo sapiens
SNB-19 = assay: NCI in vitro cytotoxicity, CNS cancer; format: cell-based; settings: Homo sapiens
[3] = system: two-spotted spider mite (2SSM) Tetranychus urticae; format: in vivo; settings: at 10 ppm
Protocol: (§2) Pesticidal bioassays were conducted at Eli Lilly Laboratories (Greenfield, Ind.) following standard procedures with eight indicator organisms: mosquito larvae (ML) Aedes aegypti (in the media), blowfly larvae (BFL) (1% in the diet), corn root worm (CRW) Diabrotics undecimcuntata howardii (in soil), two-spotted spider mite (2SSM) Tetranychus urticae (on foliage), southern army worm (SAW) Spodoptera eridania (on foliage), melon aphid (MA) (5000 ppm on foliage), cotton aphid (CA) Aphis gossypii, (on foliage) and Haemonchus contortus (HC) (a nematode, 0.1% in the media).
(§3) Pesticidal bioassays on initial fractions were conducted at Eli Lilly Laboratories (Greenfield, Ind.) following standard procedures with seven indicator organisms: mosquito larvae (ML), blow fly larvae (BFL), corn root worm (CRW), two-spotted spider mite (2SSM), southern army worm (SAW), melon aphid (MA), and Haemonchus contortus (HC).

[4] = system: corn root worm (CRW) Diabrotics undecimcuntata howardii; format: in vivo; settings: at 24 ppm
Protocol: as §2, §3

OVCAR-4 = assay: NCI in vitro cytotoxicity, ovarian cancer; format: cell-based; settings: Homo sapiens
SK-MES-1 = assay: NCI in vitro cytotoxicity, non-small cell lung cancer; format: cell-based; settings: Homo sapiens
SNB-75 = assay: NCI in vitro cytotoxicity, CNS cancer; format: cell-based; settings: Homo sapiens
CCRF-CEM = assay: NCI in vitro cytotoxicity, leukemia; format: cell-based; settings: Homo sapiens
H69 = assay: NCI in vitro cytotoxicity, small cell lung cancer; format: cell-based; settings: Homo sapiens
SNB-44 = assay: NCI in vitro cytotoxicity, CNS cancer; format: cell-based; settings: Homo sapiens, SNB44
SN12-K1 = assay: NCI in vitro cytotoxicity, renal cancer; format: cell-based; settings: Homo sapiens, SN12K1

CCCCCCCCCCC(O)C1CCC(C2CCC(C(O)CCCCCCCCCCC(O)CC3=CC(C)OC3=O)O2)O1 (centres unmarked) [Bullatacin]
IC50 (HT29): 3.84 ng/mL (≈ 0.00616 µM) | IC90 (HT29): > 92.4 ng/mL | IC50 (OVCAR-8): 2570 ng/mL (≈ 4.13 µM) | IC90 (OVCAR-8): 7650 ng/mL (≈ 12.3 µM) | LC50 [1]: 1.59 ng/mL (≈ 0.00255 µM) | IC50 (HL-60 TB): < 0.926 ng/mL | IC50 (A2780): 0.0377 ng/mL (≈ 6.05e-05 µM) | IC90 (A2780): 0.65 ng/mL (≈ 0.00104 µM) | IC50 (HCC-2998): 4050 ng/mL (≈ 6.5 µM) | IC50 (LOVO): 0.915 ng/mL (≈ 0.00147 µM) | IC90 (LOVO): 4690 ng/mL (≈ 7.53 µM) | 9KB ED50 [2]: 6.188e-11 ng/mL | displacement in a protein kinase C test (protein kinase C): 7% | IC50 (MCF7): > 92.4 ng/mL | IC90 (MCF7): > 92.4 ng/mL | IC50 (P388): > 92.4 ng/mL | IC90 (P388): > 92.4 ng/mL | IC50 (HOLT-4): 1410 ng/mL (≈ 2.26 µM) | IC90 (HOLT-4): 4720 ng/mL (≈ 7.58 µM) | IC50 (OVCAR-5): 8800 ng/mL (≈ 14.1 µM) | IC90 (OVCAR-5): > 9260 ng/mL | IC50 (DLD-1): 2760 ng/mL (≈ 4.43 µM) | IC90 (DLD-1): 8620 ng/mL (≈ 13.8 µM) | IC50 (SNB-19): > 926 ng/mL | IC90 (SNB-19): > 926 ng/mL | toxicity to two-spotted spider mites [3]: significantly toxic | toxicity to southern corn rootworm [4]: significantly toxic | IC50 (OVCAR-4): > 92.4 ng/mL | IC90 (OVCAR-4): > 92.4 ng/mL | IC50 (SK-MES-1): > 92.4 ng/mL | IC90 (SK-MES-1): > 92.4 ng/mL | IC50 (SNB-75): 3350 ng/mL (≈ 5.38 µM) | IC90 (SNB-75): > 9260 ng/mL | IC50 (CCRF-CEM): 0.0894 ng/mL (≈ 0.000144 µM) | IC90 (CCRF-CEM): 69.4 ng/mL (≈ 0.111 µM) | IC50 (H69): 2440 ng/mL (≈ 3.92 µM) | IC90 (H69): 7520 ng/mL (≈ 12.1 µM) | IC50 (SNB-44): 4420 ng/mL (≈ 7.1 µM) | IC90 (SNB-44): > 9260 ng/mL | IC50 (SN12-K1): 0.0224 ng/mL (≈ 3.6e-05 µM) | IC90 (SN12-K1): 0.287 ng/mL (≈ 0.000461 µM)
